From ChEMBL document CHEMBL1201862, “PubChem BioAssay data set” (2004) come the findings set out here.

Common to all, as to assay: DTP human tumour cell line panel, 48 h
Experiment [1] has as its system HL-60.
Experiment [2] deals with OVCAR-5.
Experiment [3] concerns UACC-62.
For experiment [4], the system named is SF-539.
The test system of experiment [5] is OVCAR-8.
For experiment [6], the system named is SNB-19.
The test system of experiment [7] is SF-295.
Experiment [8] relates to LOX IMVI.
The subject of experiment [9] is COLO 205.
Experiment [10] relates to HCT-15.
Experiment [11] deals with OVCAR-3.
Experiment [12] deals with HCT-116.
Experiment [13] has as its system SF-268.
Experiment [14] concerns RXF 393.
The subject of experiment [15] is HOP-92.
The test system of experiment [16] is BT-549.

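Method: 48-hour compound exposure of cells in 96-well plates, five concentrations, linear interpolation of endpoints. Here, GI50 denotes the concentration required for 50% inhibition of growth.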 Active and inactive are the calls of the source. Rule as the data show it: active = GI50 up to about 1.1 µM and inactive = higher. A value given as a limit tells only on which side of the number the result lay.

By GI50 is commonly meant the concentration that inhibits growth by half. Take `N#Cc1c(N)nc(Nc2cccc3ccccc23)c(C#N)c1C#N`: the GI50 was 1.88 µM (inactive) in experiment [1]; > 10 µM (inactive) in experiment [2]; 4.18 µM (inactive) in experiment [3]; 2.78 µM (inactive) in experiment [4]; 5.25 µM (inactive) in experiment [5]; > 10 µM (inactive) in [6]. Moreover, the GI50 was 3.4 µM (inactive) in [7]; 2.53 µM (inactive) in [8]; > 10 µM (inactive) in experiment [9]; 4.17 µM in experiment [10]; 2.3 µM (inactive) in experiment [11]; 2.54 µM (inactive) in experiment [12]. The GI50 was 3.68 µM (inactive) in [13] and > 10 µM (inactive) in experiment [14].
`N#CCCN(CCC#N)c1ccc(C(=N/c2ccc(Cl)cc2)/N=N/c2ccc(Cl)cc2)cc1`: the GI50 was 19.2 µM (inactive) in experiment [15]; 14 µM (inactive) in experiment [16]; 17.2 µM (inactive) in [2]; 10.9 µM (inactive) in experiment [3]; 17.8 µM (inactive) in experiment [4]; 17.6 µM (inactive) in [5]. For the same compound, the GI50 in experiment [6] is 24.2 µM (inactive); in [7], 10.7 µM (inactive); in experiment [9] it was 16.2 µM (inactive); in experiment [10], 10.7 µM; in experiment [11], 16.7 µM (inactive); in experiment [12] it was 19 µM (inactive). Also, the GI50 in experiment [13] was 15.7 µM (inactive); in experiment [14], 14.3 µM (inactive).
Consider `Nc1ncnc2c1cnn2Cc1ccc(Cl)cc1`, for which the GI50 in experiment [15], in experiment [1], in experiment [5], in experiment [6], in experiment [7] and in experiment [8] was > 100 µM (inactive) each time. Further, the GI50 in experiment [9] is > 100 µM (inactive); in experiment [10] it was more than 100 µM; in experiment [11], > 100 µM (inactive); in experiment [12], > 100 µM (inactive); in experiment [13], > 100 µM (inactive); in [14] it was > 100 µM (inactive).
With `O=C1CCC2=C(CCC2)N1CCc1ccc2c(c1)OCO2`, the GI50 in experiment [16] was 20.8 µM (inactive); in experiment [1] it was 7.62 µM (inactive); in experiment [2], 42.6 µM (inactive); in [3], 65 µM (inactive); in experiment [4], > 100 µM (inactive); in [5], > 10 µM (inactive). Also, the GI50 in [6] was 81.7 µM (inactive); in experiment [7], 55.3 µM (inactive); in experiment [8] it was 59.6 µM (inactive); in experiment [9] it was 60.3 µM (inactive); in [10] it was 43.1 µM; in [12], 48.2 µM (inactive). Besides, the results for the GI50 in experiment [13] and in experiment [14] were 77.6 µM (inactive) and 1.21 µM (inactive), respectively.
`CC(=O)C1=C(C)NC(=C(C#N)C#N)C(C#N)=C1`: the GI50 in experiment [15], in [1], in experiment [2], in experiment [3], in experiment [4] and in experiment [5] was > 100 µM (inactive) in each case. Also, the GI50 in experiment [6] was > 100 µM (inactive); in experiment [8], > 100 µM (inactive); in [9] it was > 100 µM (inactive); in [10], more than 100 µM; in experiment [12], > 100 µM (inactive); in [13], > 100 µM (inactive). Besides, the GI50 in [14] is > 100 µM (inactive).
Turning to `CCCCNC(=S)Nc1nc(C(=O)NNC(=S)NC2CCCCC2)cs1`, the GI50 is > 100 µM (inactive) in [15]; > 100 µM (inactive) in experiment [16]; > 100 µM (inactive) in experiment [2]; > 100 µM (inactive) in [3]; > 100 µM (inactive) in experiment [4]; 69.3 µM (inactive) in [5]. The GI50 is > 100 µM (inactive) in [7]; > 100 µM (inactive) in experiment [8]; > 100 µM (inactive) in experiment [9]; 32.7 µM in experiment [10]; 91.8 µM (inactive) in experiment [11]; > 100 µM (inactive) in [12]. Besides, the GI50 in experiment [13] is > 100 µM (inactive).
